Experimental data: patent US20250099403A1, “IDENTIFICATION OF ACTIVITIES OF GUT MICROBE METABOLITES” (UNIVERSITY OF SOUTH CAROLINA, priority 2023, published 2025)

Tests used:
[1] = piroxicam-accelerated Il10-deficient mouse IBD model; type: in vivo
Protocol: Experimental validation of the predictions of Example 1 were carried out using a mouse model of IBD. […] Stimulation of mucosal Toll-like receptors (TLRs) stemming from this mucosal barrier breakdown was another factor in the selection of this model, as it has been previously shown that SoL A suppresses LPS-induced inflammation and LPS is well-known to activate TLR signaling. […]
Fecal material was collected from IBD 1/10−/−+piroxicam (n=7, female) and pre-IBD control//10−/−mice (n=4, female), extracted metabolites, and the abundance of SoLs was measured by targeted metabolomics using high performance liquid chromatography (HPLC)-high resolution mass spectrometry (HRMS). […] Metabolites with m/z corresponding to major SoLs were detected, specifically SoLs A and B, in all samples tested and their identities were unambiguously determined by HPLC-MS/MS. […]
Peak areas were calculated using TICs obtained after MS/MS fragmentation and used to measure the abundance of SoLs A and B. Significance was determined using Student's t-test. […] Significance was determined using Mann-Whitney U test. […]
Piroxicam-accelerated 1110−/−mouse IBD model and analysis. […] Mice were euthanized at 18 days to collect tissues for assessment and intestinal contents for quantification of SoLs. […] Inflammation scores of colon sections were blindly assessed using an Echo Revolve light microscope and accompanying software. […]

MD-2 = molecular target: T1, MD-2 (Homo sapiens, UniProt Q9Y6Y9); experiment: ELISA-based displacement assay with biotinylated LPS; type: binding
T1 construct: purchased Novus Biologicals
T1 sequence (Q9Y6Y9 19-160): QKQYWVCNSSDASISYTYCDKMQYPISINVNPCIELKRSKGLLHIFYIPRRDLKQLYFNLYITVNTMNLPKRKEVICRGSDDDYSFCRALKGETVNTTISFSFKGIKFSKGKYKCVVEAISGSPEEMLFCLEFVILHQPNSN
Protocol: To experimentally determine if SoLs A and B bind to MD-2 and to what extent the SoLs compete with LPS for binding to MD-2, an ELISA-based displacement assay was conducted. Taking advantage of biotinylated LPS, which retains the activity of unconjugated LPS, absorbance generated by an HRP-linked streptavidin probe was measured to determine the relative amount of MD-2 that was bound with biotin-LPS as opposed to MD-2 bound with SoL A or B. 0.1, 1.0, and 10 µM concentrations of SOL A or B and 1 ng/ml biotin-LPS were administered to MD-2 in three sequences: 1) Sol first followed by LPS 1 hour later, 2) LPS first followed by Sol 1 hour later, and 3) both SoL A or B and LPS at the same time.
ELISA displacement assay. Solid-phase sandwich ELISA kits were purchased from Invitrogen. The ELISA experiments were performed according to the kit instructions, using 50 nM hMD-2 (Novus Biologicals), 1 ng/mL LPS-EB Biotin (Invivogen), and 0.1, 1.0, and 10 µM purified SoL A. SOL A was added to the assay 1 hour before, 1 hour after, or simultaneously with LPS-EB Biotin. Absorbance was measured at 450 nm using a BioTek microplate reader.

Macrophages = experiment: Western blot of TLR4 downstream signaling in LPS-treated macrophages; type: cell-based; conditions: 100 ng/ml LPS, 30 minutes
Protocol: Macrophages were treated with 100 ng/ml LPS in the presence of increasing concentrations of Sol A or B (from 0 to 20 μM) for 30 minutes. Following treatment, all cellular protein was extracted using MPER lysis buffer (Thermo Scientific). Protein samples were loaded onto SDS-PAGE gels for separation, then transferred to nitrocellulose membranes (Amersham Biosciences). Primary antibodies and HRP-conjugated secondary antibodies (Cell Signaling Technology) were used to detect target proteins. Signal was detected using an ECL kit (Thermo Scientific). […] The housekeeping gene β-Actin was used as a loading control.

[2] = tested on: Primary mouse macrophages; experiment: inflammatory cytokine expression in primary mouse macrophages, agent alone (RT-qPCR); type: cell-based; conditions: agent by itself, n=3
Protocol: (§1) Primary mouse macrophages were treated with SoL A (as a representative of SoLs) either alone or together with LPS (an agonist of TLR4) or Pam3CSK4 (an agonist of TLR1/2) and the expression of three inflammatory cytokines was measured (IL-6, TNFα, and IL-1β).
(§2) Preparation and treatment of macrophages. Primary mouse macrophages were prepared by first introducing 3 mL of 3% thioglycolate to mice via intraperitoneal injection. After 3 days, 10 mL of chilled PBS was introduced intraperitoneally to flush out macrophages. The cell suspension was then separated by centrifugation at 300×g for 5 minutes. Cells were seeded in culture dishes containing DMEM with 10% FBS for 1 hour before being washed with serum-free DMEM two times to remove unattached cells. The cells were incubated in serum-free DMEM for 16 hours before treatment. To treat the macrophages, cells were incubated for 6 to 24 hours in DMEM without FBS with addition of LPS (Sigma-Aldrich), Pam3CSK4 (Invivogen), or SoL A. Cells were finally washed twice with Dulbecco's phosphate-buffered saline before being lysed for total RNA or protein extraction.
mRNA extraction and RT-qPCR in macrophage-based assays. […] The quality and quantity of RNA was then determined using a nanodrop and 1000 ng of mRNA from each sample was used for cDNA synthesis using a First-strand cDNA Synthesis System (Marligen Bioscience), qPCRs reactions were prepared in a 20 uL final volume containing Fast Start Universal SYBR Green Master (Rox) (Roche Applied Science), cDNA template, deionized water, and primers and probes for IL-1β, TNFα, IL-6, and the 18S rRNA which was used as a housekeeping gene Cycling conditions were 95° C. for 10 min followed by 40 cycles of 95° C. for 10 seconds, 60° C. for 15 seconds, and 68° C. for 20 seconds, then a melting curve analysis from 60° C. to 95° C. every 0.2° C. was obtained. […] Relative gene expression levels were calculated using the ΔΔCT method and expression levels of 18S were used to normalize the results.

TLR4 = experiment: LPS-induced cytokine expression in primary mouse macrophages (RT-qPCR); type: cell-based; conditions: SoL A together with LPS, p≤0.0001
Protocol: as §1
Preparation and treatment of macrophages. Primary mouse macrophages were prepared by first introducing 3 mL of 3% thioglycolate to mice via intraperitoneal injection. After 3 days, 10 mL of chilled PBS was introduced intraperitoneally to flush out macrophages. The cell suspension was then separated by centrifugation at 300×g for 5 minutes. […]
mRNA extraction and RT-qPCR in macrophage-based assays. […] The quality and quantity of RNA was then determined using a nanodrop and 1000 ng of mRNA from each sample was used for cDNA synthesis using a First-strand cDNA Synthesis System (Marligen Bioscience), qPCRs reactions were prepared in a 20 uL final volume containing Fast Start Universal SYBR Green Master (Rox) (Roche Applied Science), cDNA template, deionized water, and primers and probes for IL-1β, TNFα, IL-6, and the 18S rRNA which was used as a housekeeping gene Cycling conditions were 95° C. for 10 min followed by 40 cycles of 95° C. for 10 seconds, 60° C. for 15 seconds, and 68° C. for 20 seconds, then a melting curve analysis from 60° C. to 95° C. every 0.2° C. was obtained. […]

TLR1/2 = experiment: Pam3CSK4-induced cytokine expression in primary mouse macrophages (RT-qPCR); type: cell-based
Protocol: as §1
On FIG. 16, bars represent mean±standard error. For each treatment, n=3. Significance was determined using Student's t test: * p<0.05, **** p<[…] 0.0001.
as §2, with “To treat the macrophages, cells were incubated for 6 to 24 hours in DMEM without FBS with addition of LPS (Sigma-Aldrich), Pam3CSK4 (Invivogen), or SoL A. Cells were finally washed twice with Dulbecco's phosphate-buffered saline before being lysed for total RNA or protein extraction.” left out
mRNA extraction and RT-qPCR in macrophage-based assays. […] Relative gene expression levels were calculated using the ΔΔCT method and expression levels of 18S were used to normalize the results.

THP-1 monocytes [3] = experiment: M1 polarization of THP-1 derived macrophages (RT-qPCR of markers); type: cell-based; conditions: 10 µM SoL A with IFN-γ and LPS, 24 hours, n=3
Protocol: (§3) THP-1 monocytes were treated with IFN-γ and LPS to induce M1 polarization or IL-4 and IL-1β to induce M2 polarization. Successful induction of M1 and M2 polarization was confirmed by morphology changes and subsequent RT-qPCR quantification of cytokine profiles.
(§4) For all treatments, n=3 and significance was determined using one-way ANOVA: 0.001<p<0.01, *** 0.0001<p<0.001, and **** p<0.0001.
(§5) THP-1 monocytes were maintained in RPMI16 with 10% heat inactivated FBS, 1% Penicillin-Streptomycin-Ampotericin B, and 50 μM 2-mercaptoethanol prior to differentiation. The cells were differentiated into macrophages with 150 nM PMA for 48 hours. M1 polarization was induced by adding 20 ng/ml IFN-γ and […] LPS for 24 hours. M2 polarization was induced by adding 20 ng/ml IL-4 and 20 ng/ml IL-1β for 24 hours. In all tests, 10 µM Sol A was added at the same time as M1 and M2 differentiation agents. After 24 hours of treatment, total RNA was collected, and RT-qPCR was performed as described above.

THP-1 monocytes [4] = experiment: M2 polarization of THP-1 derived macrophages (RT-qPCR of markers); type: cell-based; conditions: 10 µM SoL A with IL-4 and IL-1β, 24 hours, n=3
Protocol: as §3, §4, §5

peritoneal macrophages = experiment: inflammatory cytokine expression in macrophages treated with purified SoL A (qRT-PCR); type: cell-based; conditions: 10UM (FIG. 32 legend)
[5] = in vivo inflammation after intraperitoneal injection of SoL A; parameters: species or system mouse; conditions: 1 mg/kg i.p.
Protocol: To test whether SoL A can induce inflammation in vivo, mice were treated by intraperitoneal (i.p.) injection of 1 mg/kg of SOL A. At 2 hrs post-injection, FACS analysis of immune cells in the peritoneal exudate was performed.

[6] = SoL added first, LPS 1 hour later, vs LPS first or together, all concentrations 0.1, 1.0, 10 µM, 1 ng/ml biotin-LPS
[7] = moving from low to high concentrations of SoL (0.1, 1.0, 10 µM)

| Molecule | percent absorbance (MD-2 bound with biotin-LPS) (MD-2; [6]) | percent absorbance (MD-2 bound with biotin-LPS) (MD-2; [7]) | LPS-induced IκBα degradation (Macrophages; SoL 0 to 20 μM) | LPS-induced phosphorylation of p38 and ERK1/2 (Macrophages; SoL 0 to 20 μM) | LPS-induced phosphorylation of p38 and ERK1/2 (Macrophages; SoL at 20 µM) | expression of inflammatory cytokines (IL-6, TNFα, IL-1β) compared to control [2] | further results |
| --- | --- | --- | --- | --- | --- | --- | --- |
| CN1C(C(=O)Nc2ccccn2)=C(O)c2ccccc2S1(=O)=O [piroxicam] |  |  |  |  |  |  | histological analysis of mouse distal colon ([1]; 1/10−/− mice, diet with 100 ppm piroxicam, 18 days): induced intestinal inflammation; colon expression of inflammatory markers TNFα, NOS2, IL-6, and IL-1β ([1]; 1/10−/−+piroxicam mice vs control, Mann-Whitney U test): significantly increased |
| CC(C)CCCCCCCCCCCC(=O)N[C@@H](CS(=O)(=O)O)[C@H](O)CCCCCCCCCCCC(C)C [SoL B, sulfobacin B] | marked decrease | decreased dramatically | concentration-dependently suppressed | reduced LPS-induced phosphorylation of p38 and ERK1/2 in a concentration-dependent manner | almost completely blocked |  |  |
| lipopolysaccharide [LPS] |  |  |  |  |  | significant induction |  |
| CC(C)CCCCCCCCCCC[C@@H](O)CC(=O)N[C@@H](CS(=O)(=O)O)[C@H](O)CCCCCCCCCCCC(C)C [SoL A, sulfobacin A] | marked decrease | decreased dramatically | concentration-dependently suppressed | reduced LPS-induced phosphorylation of p38 and ERK1/2 in a concentration-dependent manner | almost completely blocked | mild to moderate effect | expression of all three cytokines (IL-6, TNFα, IL-1β) induced by LPS (TLR4): significantly suppress; Pam3CSK4-induced IL-6 and TNFα expression (TLR1/2; SoL A together with Pam3CSK4): inhibited Pam3CSK4-induced IL-6 and TNFα to a smaller extent; IL-1β expression induced by Pam3CSK4 (TLR1/2; SoL A together with Pam3CSK4, p≤0.05): increasing; production of M1-polarized macrophage markers IL-6, CXCL10, IL-12β, and TNFα (THP-1 monocytes [3]): significantly reduced; effect on M2 polarization (marker expression) (THP-1 monocytes [4]): mostly non-significant effect; expression levels of pro-inflammatory cytokines IL-1a, IL-1B, IL-6, and TNFα (peritoneal macrophages): significantly increased; monocytes and neutrophils in the peritoneal exudate ([5]; 2 hrs post-injection, FACS): more monocytes (Mono) and neutrophils (Neut) were recruited; serum IL-6 levels ([5]; ELISA): significantly and consistently increased |
| Pam3CSK4 |  |  |  |  |  | significant induction |  |
